Earlier results as cited in patent publication US20150057617A1, “ANTI-MICROBIAL DRESSING, AN ANTI-MICROBIAL COMPOSITION AND USE THEREOF” (EMODIAL S.r.l., priority 2012, published 2015).

Test system: fibroblasts

## [H]/N=C(\N/C(=N/[H])NCCCCCCNC(=N)NC(=N)Nc1ccc(Cl)cc1)Nc1ccc(Cl)cc1 [chlorhexidine]
  cytotoxicity for fibroblasts: cytotoxic for fibroblasts
